According to patent US4983597A, “Beta-lactams as anticholesterolemic agents” (Merck & Co., Inc., priority 1989, dated 1991):

Target: T1, HMG-CoA synthase (Rattus norvegicus, UniProt P17425)
T1 construct: The livers from male Charles River CD rats (225-350 g) were homogenized; from tissue; host or cells: rat liver (male Charles River CD rats), 100,000 x g supernatant, ammonium sulfate and DEAE-52 fraction
T1 sequence (P17425 1-520): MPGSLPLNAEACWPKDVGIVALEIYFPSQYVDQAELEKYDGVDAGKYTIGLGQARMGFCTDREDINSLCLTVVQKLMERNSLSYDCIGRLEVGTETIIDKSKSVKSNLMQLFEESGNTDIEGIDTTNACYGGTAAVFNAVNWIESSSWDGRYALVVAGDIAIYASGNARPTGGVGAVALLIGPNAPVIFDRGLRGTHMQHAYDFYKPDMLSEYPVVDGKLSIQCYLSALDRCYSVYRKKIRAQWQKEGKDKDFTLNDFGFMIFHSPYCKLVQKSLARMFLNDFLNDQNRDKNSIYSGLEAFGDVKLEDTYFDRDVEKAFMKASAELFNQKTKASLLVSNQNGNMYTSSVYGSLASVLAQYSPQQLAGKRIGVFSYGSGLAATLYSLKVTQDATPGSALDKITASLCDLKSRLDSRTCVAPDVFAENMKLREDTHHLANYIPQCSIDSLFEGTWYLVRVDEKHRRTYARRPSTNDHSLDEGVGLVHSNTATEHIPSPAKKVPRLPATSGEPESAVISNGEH
Experiment: HMG-CoA Synthase Inhibition Assay
Assay type: biochemical
Conditions: Table I; rat liver enzyme, 1-[14C]-acetyl-CoA incorporation
Method: The intrinisic HMG-CoA synthase inhibition activity of the compounds of this invention is measured by the standard in vitro protocol described below:
The livers from male Charles River CD rats (225-350 g) were homogenized in 0.25 M sucrose which was adjusted with phenylmethylsulfonylfluoride (PMSF) and N-p-tosyl-1-lysine chloromethyl ketone (TLCK) so that the final concentration of each was […], respectively. The homogenate was centrifuged at 15,000× g for 20 minutes, the supernatant filtered through a fine nylon screen to remove most of the fat layer and recentrifuged at 100,000× g for 1 hour. This supernatant was removed and 1 M potassium phosphate, dithiothreitol (DTT) and ethylene glycolbis(β-aminoethyl ether)-N,N,N',N'-tetraacetic acid (EGTA) added to give a final concentration of 0.1 M (pH 7.2), 0.5 mM and 0.1 mM, respectively. Solid ammonium sulfate was added to 50% saturation to the protein solution, it was centrifuged at 15,000× g and the supernatant discarded. This precipitated protein could be stored at -70° C. for at least one month with very little loss of activity. The ammonium sulfate precipitate was dissolved in an minimal amount of 0.06 M potassium phosphate buffer (pH 7.2) containing 0.5 mM dithiothreitol and 0.1 mM EGTA (referred to as 0.06 M phosphate buffer) and dialyzed overnight against 2 liters of the same buffer to remove the ammonium sulfate and to inactivate HMG-CoA lyase [Clinkenbeard, et al., J. Biol. Chem. 250, 3108-3116(1975)].
The dialyzed extract was added to a column of DEAE-52 (Whatman) which had been equilibrated with 0.06 M phosphate buffer (10 mg of protein in 1 ml bed volume of the resin). The DEAE-cellulose was eluted with 0.06 M phosphate buffer until the optical density at 280 nm was essentially zero. This fraction contained the β-ketoacetyl-CoA thiolase activity. The HMG-CoA synthase was eluted from the column with 0.1 M phosphate buffer (pH 7.2) containing 0.5 mM DTT and […] EGTA, and was virtually free of all thiolase activity. The protein was precipitated by the addition of ammonium sulfate to give 50% saturation. This solution was stirred for 10 minutes at 4° C. and the precipitate collected by centrifugation at 15,000 rpm for 10 minutes. The supernatant was discarded and the precipitate dissolved in a minimum of 0.06 M phosphate buffer, pH 7.2 (about 10 ml) and the enzyme stored at -80° C.
HMG-CoA Synthase Inhibition Assay
Enzyme protein (ca. 24 mg) was added to a solution containing […] Tris-HCl (pH 8.0), 11.7 μM MgCl2, 1.17 μM ethylenediaminetetraacetic acid (EDTA), 0.58 μM dithiothreitol, and the indicated concentrations of the test compound (added as a 2 mg/ml solution in dimethylsulfoxide). The incubation took place in a volume of 0.085 ml at 30° in a shaking water bath. After 5 minutes, […] of a solution containing acetoacetyl-CoA and 0.1 μCi of 1-[^14 C]-acetyl-CoA was added to give a final concentrations of 0.1 and 0.4 μM, respectively. The incubation was continued for 10 more minutes and the reaction stopped by the addition of […] of the assay mixture to 0.2 ml of 6N HCl in a glass scintillation vial. The vial was heated for 1 hour at 120° after which time 0.2 ml more of 6N HCl was again added to each vial and the heating continued for another hour. Following this, 1.0 ml of 0.9% saline was added to each vial and finally 10 ml of scintillation liquid. Radioactivity was determined in a Packard Tri-Carb liquid scintillation counter. Percent inhibition is calculated by the formula: [formula]
IC50 values were determined by plotting the log of the concentration of the test compound verses the percentage inhibition and fitting a straight line to the resulting data by using the least squares method.

Compound | IC50 [nM]
CC[C@@H]1C(=O)N(S(=O)(=O)c2ccc(C)cc2)[C@@H]1COC(=O)c1ccccn1 (relative stereo) [Table I e] | 54
CC[C@@H]1C(=O)N(S(=O)(=O)c2ccc(C)cc2)[C@@H]1COC(=O)c1csc(OC)n1 (relative stereo) [Table I qq] | 45
CC[C@@H]1C(=O)N(S(=O)(=O)c2ccc(C)cc2)[C@@H]1COC(=O)c1cccnc1Oc1ccccc1 (relative stereo) [Table I t] | 33
CC[C@@H]1C(=O)N(S(=O)(=O)c2ccc(C)cc2)[C@@H]1COC(=O)c1ccc(OC)c(OC)n1 (relative stereo) [Table I pp] | 89

More lines, now with the values ahead:

IC50 [nM] | Compound
180 | COc1ccc(C(=O)OC[C@@H]2[C@H](CO)C(=O)N2S(=O)(=O)c2ccc(C)cc2)cc1 (relative stereo) [Table I aa]
150 | COc1ccc(C(=O)OC[C@H]2[C@H](CO)C(=O)N2S(=O)(=O)c2ccc(C)cc2)cc1 (relative stereo) [Table I ss]
8.5 | CC[C@@H]1C(=O)N(S(=O)(=O)c2ccc(C)cc2)[C@@H]1COC(=O)c1ccc(C(=O)OC)cc1 (relative stereo) [Table I ii]
110 | CC[C@@H]1C(=O)N(S(=O)(=O)c2ccc(C)cc2)[C@@H]1COC(=O)c1ccccc1 (relative stereo) [Table I dd]
28 | CC[C@@H]1C(=O)N(S(=O)(=O)c2ccc(C)cc2)[C@@H]1COC(=O)c1ccc([N+](=O)[O-])cc1 (relative stereo) [Table I y]
62 | CC[C@@H]1C(=O)N(S(=O)(=O)c2ccc(C)cc2)[C@@H]1COC(=O)c1ccncc1 (relative stereo) [Table I d]
30 | CC[C@@H]1C(=O)N(S(=O)(=O)c2ccc(C)cc2)[C@@H]1COC(=O)c1ccc(OC)cc1 (relative stereo) [Table I cc]

Same assay, conditions: Table II; rat liver enzyme, 1-[14C]-acetyl-CoA incorporation

IC50 [nM] | Compound
42 | CC[C@H]1C(=O)N(S(=O)(=O)c2ccc(C)cc2)[C@H]1COC(=O)CSc1ccccc1 (relative stereo) [Table II q]
50 | CO[C@@H](C(=O)OC[C@@H]1CC(=O)N1S(=O)(=O)c1ccc(C)cc1)c1ccccc1 [Table II f]
30 | CC[C@H]1C(=O)N(S(=O)(=O)c2ccc(C)cc2)[C@H]1COC(=O)Cc1ccc(OC)c(OC)c1 (relative stereo) [Table II y]
2400 | CC[C@@H]1C(=O)N(S(=O)(=O)c2ccc(C)cc2)[C@@H]1COC(=O)Cc1ccco1 (relative stereo) [Table II l]

Same assay, conditions: Table IV; rat liver enzyme, 1-[14C]-acetyl-CoA incorporation

IC50 [nM] | Compound
1500 | CCC[C@H]1C(=O)N(S(=O)(=O)c2ccc(C)cc2)[C@@H]1C=Cc1ccccc1 (relative stereo) [Table IV a]

Same assay, conditions: Table V; rat liver enzyme, 1-[14C]-acetyl-CoA incorporation

IC50 [nM] | Compound
120 | CCC1C(=O)N(S(=O)(=O)c2ccc(C)cc2)C1C(C)OC(=O)c1ccc(OC)cc1 (centres unmarked) [Table V c]
9900 | CC[C@H]1C(=O)N(S(=O)(=O)c2ccc(C)cc2)[C@H]1CNc1ccc(C(=O)O)cc1 (relative stereo) [Table V a, (±) cis-3-Ethyl-4-hydroxycarbonylphenylaminomethyl-N-toluenesulfonyl-2-azetidinone]
2000 | CCC1C(=O)N(S(=O)(=O)c2ccc(C)cc2)C1C(OC(=O)c1ccc(OC)cc1)c1ccccc1 (centres unmarked) [Table V e]
290 | CC(=O)OCC(C)C1CC(=O)N1S(=O)(=O)c1ccc(C)cc1 (centres unmarked) [Table V g]
